Laboratory results from US10869878B2, “Vaginal composition and use thereof” (SINGAPORE ZE&Z INTERNATIONAL PTE. LTD, priority 2014, dated 2020).
Like-named read-outs stand apart in the source and are kept apart here.

How the values were obtained:
Candida glabrada isolate = conditions: medium with 0.5% (w/v) isomaltulose, pH 5.4
Source text: (§3) The following culture media containing different concentrations of preservatives were formulated with a basal medium containing 0.5% (w/v) isomaltulose, MRS medium without carbohydrate, and 5% (w/v) calf serum:
A. 0.1% (w/v) sodium benzoate
B. 0.2% (w/v) sodium benzoate
C. 0.02% (w/v) sodium dehydroacetate
D. 0.25% (w/v) sodium propionate group
E. 0.5% (w/v) sodium propionate group
(§4) F. 0.02% (w/v) sodium dehydroacetate+0.25% (w/v) sodium propionate group
(§5) G. 0.02% (w/v) sodium dehydroacetate+0.5% (w/v) sodium propionate group
(§6) The culture medium of each group was adjusted to pH 5.4, sterilized and packed in a test tube in a specification of 2 ml/tube.
(§7) (2) Inoculation and incubation of test strains: a bacterial suspension containing (1-5)×10^5 cfu/ml Candida glabrada isolate and a bacterial suspension containing (1-5)×10^5 cfu/ml L. jensenii were inoculated to each tube respectively. The Candida glabrada was aerobically incubated at 37° C. for 72 hrs, and the L. jensenii was microaerophilic incubated for 22 hrs.

L. jensenii = conditions: medium with 0.5% (w/v) isomaltulose, pH 5.4
Source text: as §3
A. 0.1% (w/v) sodium benzoate
B. 0.2% (w/v) sodium benzoate
C. 0.02% (w/v) sodium dehydroacetate
D. 0.25% (w/v) sodium propionate group
E. 0.5% (w/v) sodium propionate group
as §4, §5, §6, §7

Canidia albicans = assay: Metabolization of carbohydrates by Canidia albicans, residual carbohydrate by HPLC (Experimental Example 5); type: cell-based; conditions: for residual carbohydrate content by HPLC: 72 hrs aerobic, 37° C., initial 1.5% (w/v) carbohydrate, pH 7.0, detection limit 0.05% (w/v)
Experimental: (1) Grouping in experiment:
(2) Test strain: 2 strains of Canidia albicans, isolated from patients with candidal vaginitis.
The supernatant was separated by centrifugation, and packed in a specification of 5 ml/tube. The carbohydrate content in each tube was detected by HPLC.

[1] = tested on: Lactobacilli in the secretions from BV patients; assay: Selective promotion of carbohydrate containing gels for the growth of Lactobacilli, 16s rDNA identification (Experimental Example 4); type: cell-based; conditions: secretions from 20 BV patients; 1% (w/v) carbohydrate gel, 48 hrs slightly aerobic
Experimental: (§1) (3) After sampling, the vaginal secretion specimens from BV patients meeting the criteria of inclusion were immediately inoculated to the above 4 gels containing a carbohydrate, slightly aerobically incubated at 37° C. for 48 hrs, then transferred to a plate containing improved MRS with 1% (w/v) glucose and 5% (w/v) calf serum, slightly aerobically incubated for 20-48 hrs, isolated, purified and multiplied. The strain was identified by 16s rDNA sequencing.

BV-associated bacteria [2] = assay: Acid production by BV-associated bacteria in carbohydrate containing gels, slightly aerobic incubation (Experimental Example 1); type: cell-based; conditions: 1% (w/v) carbohydrate gel
Source text: (1) Grouping in experiment: • (1) Isomaltulose group: containing 1% (w/v) isomaltulose, MRS basal medium without carbohydrate, 5% (w/v) calf serum, and 0.5% (w/v) xanthan gum, pH5.4; • (2) Isomaltose group: containing 1% (w/v) isomaltose, MRS basal medium without carbohydrate, 5% (w/v) calf serum, and 0.5% (w/v) xanthan gum, pH5.4; • (3) Sucrose group: containing 1% (w/v) sucrose, MRS basal medium without carbohydrate, 5% (w/v) calf serum, and 0.5% (w/v) xanthan gum, pH5.4; and • (4) Maltose group: containing 1% (w/v) maltose, MRS basal medium without carbohydrate, 5% (w/v) calf serum, and 0.5% (w/v) xanthan gum, pH5.4.
The gel of each group was formulated essentially following the method described in Composition Example 1, then sterilized, added with calf serum, and packed in test tubes in a specification of 5 g/tube, for late use.
(§2) (2) Secretion specimens from BV patients: vaginal secretions from 5 BV patients; and the criteria of inclusion are: • (1) conforming to the Amsel clinical criteria of BV diagnosis, wherein the pH value of the vaginal secretions was >4.6; • (2) after smearing, Gram staining and microscopical examination of vaginal secretions, Nugent score ≥7; and • (3) no other vaginosis and no antimicrobial agent is used within two weeks.
(3) After sampling, the secretion specimens from BV patients meeting the criteria of inclusion were immediately inoculated to the above 4 gels containing a carbohydrate, and slightly aerobically incubated at 37° C. for 46 hrs. The pH values of the gel matrices are detected with a precise pH test paper respectively at 14 hrs, 36 hrs, and 46 hrs.

[3] = tested on: Bifidobacteria in the secretions from BV patients; assay: Selective promotion of carbohydrate containing gels for the growth of Bifidobacteria (Experimental Example 4); type: cell-based; conditions: secretions from 20 BV patients; 1% (w/v) carbohydrate gel, 48 hrs slightly aerobic
Experimental: as §1

[4] = tested on: Gardnerella vaginalis in the secretions from BV patients; assay: Selective promotion of carbohydrate containing gels for the growth of Gardnerella vaginalis (Experimental Example 4); type: cell-based; conditions: secretions from 20 BV patients; 1% (w/v) carbohydrate gel, 48 hrs slightly aerobic
Experimental: as §1

BV-associated bacteria [5] = assay: Acid production by BV-associated bacteria in semi-solid agars containing a carbohydrate, anaerobic incubation (Experimental Example 2); type: cell-based; conditions: 24 hrs anaerobic, 37° C., 1.5% (w/v) carbohydrate, initial pH 5.4
Source text: (1) Grouping in experiment: • (1) Glucose group: containing 1.5% (w/v) glucose, MRS basal medium without carbohydrate, 5% (w/v) calf serum, and 0.45% (w/v) agar, pH5.4; • (2) Fructose group: containing 1.5% (w/v) fructose, MRS basal medium without carbohydrate, 5% (w/v) calf serum, and 0.45% (w/v) agar, pH5.4; • (3) Mannose group: containing 1.5% (w/v) mannose, MRS basal medium without carbohydrate, 5% (w/v) calf serum, and 0.45% (w/v) agar, pH5.4; • (4) Sucrose group: containing 1.5% (w/v) sucrose, MRS basal medium without carbohydrate, 5% (w/v) calf serum, and 0.45% (w/v) agar, pH5.4; • (5) Maltose group: containing 1.5% (w/v) maltose, MRS basal medium without carbohydrate, 5% (w/v) calf serum, and 0.45% (w/v) agar, pH5.4; • (6) Isomaltose group: containing 1.5% (w/v) isomaltose, MRS basal medium without carbohydrate, 5% (w/v) calf serum, and 0.45% (w/v) agar, pH5.4; and • (7) Isomaltulose group: containing 1.5% (w/v) isomaltulose, MRS basal medium without carbohydrate, 5% (w/v) calf serum, and 0.45% (w/v) agar, pH5.4.
The semi-solid agar of each group was formulated essentially following the method described in Composition Example 1, then sterilized, added with calf serum, and packed in test tubes in a specification of 5 g/tube, for late use.
as §2
(3) After sampling, the secretion specimens from BV patients meeting the criteria of inclusion were immediately inoculated to the above 7 aseptic semi-solid agars containing a carbohydrate at the bedside and anaerobically incubated at 37° C. for 24 hrs. The pH values of the agar matrices are detected with a precise pH test paper.

BV = conditions: cited from earlier work; for cure rate for BV: Livengood 2007
[6] = 0.02% (w/v) sodium dehydroacetate

CC(=O)c1c([O-])cc(C)oc1=O.[Na+] [sodium dehydroacetate]
turbidity, Candida (0 hr) (Candida glabrada isolate; [6]): 0.5 | turbidity, Candida (72 hrs) (Candida glabrada isolate; [6]): 3.9 | turbidity, Lactobacilli (0 hr) (L. jensenii; [6]): 0.5 | turbidity, Lactobacilli (22 hrs) (L. jensenii; [6]): 1.4

OC[C@H]1O[C@H](O[C@H]2[C@H](O)[C@@H](O)C(O)O[C@@H]2CO)[C@H](O)[C@@H](O)[C@@H]1O (mixture of isomers) [Maltose, maltose]
residual carbohydrate content by HPLC (Canidia albicans; Canidia albicans 1): Not detected^1 | residual carbohydrate content by HPLC (Canidia albicans; Canidia albicans 2): Not detected | residual concentration (Canidia albicans; both strains of Canidia albicans, 72 hrs, initial 1.5% (w/v)): below 0.05 % (w/v) | samples positive for Lactobacilli, In total [1]: 8 | total number of samples positive for L. amylovorus incubation [1]: 1 | total number of samples positive for L. crispatus incubation [1]: 1 | total number of samples positive for L. gasseri incubation [1]: 2 | total number of samples positive for L. iners incubation [1]: 0 | total number of samples positive for L. jensenii incubation [1]: 3 | total number of samples positive for L. mucosae incubation [1]: 1 | pH of the gel (BV-associated bacteria [2]; Specimen 1, 0 hr (initial)): 5.4 | pH of the gel (BV-associated bacteria [2]; Specimen 1, 14 hrs, slightly aerobic, 37° C., initial pH 5.4): 3.8 | pH of the gel (BV-associated bacteria [2]; Specimen 1, 46 hrs, slightly aerobic, 37° C., initial pH 5.4): ≤3.8 | pH of the gel (BV-associated bacteria [2]; Specimen 2, 0 hr (initial)): 5.4 | pH of the gel (BV-associated bacteria [2]; Specimen 2, 14 hrs, slightly aerobic, 37° C., initial pH 5.4): 4.1-4.4 | pH of the gel (BV-associated bacteria [2]; Specimen 2, 46 hrs, slightly aerobic, 37° C., initial pH 5.4): ≤3.8 | pH of the gel (BV-associated bacteria [2]; Specimen 3, 0 hr (initial)): 5.4 | pH of the gel (BV-associated bacteria [2]; Specimen 3, 14 hrs, slightly aerobic, 37° C., initial pH 5.4): 4.1-4.4 | pH of the gel (BV-associated bacteria [2]; Specimen 3, 36 hrs, slightly aerobic, 37° C., initial pH 5.4): ≤3.8 | pH of the gel (BV-associated bacteria [2]; Specimen 4, 0 hr (initial)): 5.4 | pH of the gel (BV-associated bacteria [2]; Specimen 4, 14 hrs, slightly aerobic, 37° C., initial pH 5.4): 4.6 | pH of the gel (BV-associated bacteria [2]; Specimen 4, 36 hrs, slightly aerobic, 37° C., initial pH 5.4): ≤3.8 | pH of the gel (BV-associated bacteria [2]; Specimen 5, 0 hr (initial)): 5.4 | pH of the gel (BV-associated bacteria [2]; Specimen 5, 14 hrs, slightly aerobic, 37° C., initial pH 5.4): 4.1-4.4 | pH of the gel (BV-associated bacteria [2]; Specimen 5, 36 hrs, slightly aerobic, 37° C., initial pH 5.4): 4.1-4.4 | number of samples positive for Bifidobacterium bifidum [3]: 1 (8) | number of samples positive for Bifidobacterium breve [3]: 0 | number of samples positive for Bifidobacterium dentium [3]: 0 | number of samples positive for Bifidobacterium longum [3]: 0 | samples positive for Bifidobacteria, In total [3]: 1 | number of samples positive for Gardnerella vaginalis [4]: 6 (2, 6, 7, 9, 15, 19) | samples positive for Gardnerella vaginalis, In total [4]: 6 | pH of the semi-solid agar (BV-associated bacteria [5]; Specimen 1): 3.8 | pH of the semi-solid agar (BV-associated bacteria [5]; Specimen 2): 3.8 | pH of the semi-solid agar (BV-associated bacteria [5]; Specimen 3): 3.8 | pH of the semi-solid agar (BV-associated bacteria [5]; Specimen 4): 3.8 | pH of the semi-solid agar (BV-associated bacteria [5]; Specimen 5): 3.8

CCC(=O)[O-].[Na+] [sodium propionate]
turbidity, Candida (0 hr) (Candida glabrada isolate; 0.25% (w/v) sodium propionate): 0.5 | turbidity, Candida (72 hrs) (Candida glabrada isolate; 0.25% (w/v) sodium propionate): >7.5 | turbidity, Candida (0 hr) (Candida glabrada isolate; 0.5% (w/v) sodium propionate): 0.4 | turbidity, Candida (72 hrs) (Candida glabrada isolate; 0.5% (w/v) sodium propionate): 6.3 | turbidity, Lactobacilli (0 hr) (L. jensenii; 0.25% (w/v) sodium propionate): 0.6 | turbidity, Lactobacilli (22 hrs) (L. jensenii; 0.25% (w/v) sodium propionate): 5.2 | turbidity, Lactobacilli (0 hr) (L. jensenii; 0.5% (w/v) sodium propionate): 0.4 | turbidity, Lactobacilli (22 hrs) (L. jensenii; 0.5% (w/v) sodium propionate): 1.7

O=C([O-])c1ccccc1.[Na+] [sodium benzoate]
turbidity, Candida (0 hr) (Candida glabrada isolate; 0.1% (w/v) sodium benzoate): 0.6 | turbidity, Candida (72 hrs) (Candida glabrada isolate; 0.1% (w/v) sodium benzoate): 7.1 | turbidity, Candida (0 hr) (Candida glabrada isolate; 0.2% (w/v) sodium benzoate): 0.6 | turbidity, Candida (72 hrs) (Candida glabrada isolate; 0.2% (w/v) sodium benzoate): 2.1 | turbidity, Lactobacilli (0 hr) (L. jensenii; 0.1% (w/v) sodium benzoate): 0.6 | turbidity, Lactobacilli (22 hrs) (L. jensenii; 0.1% (w/v) sodium benzoate): 0.9 | turbidity, Lactobacilli (0 hr) (L. jensenii; 0.2% (w/v) sodium benzoate): 0.7 | turbidity, Lactobacilli (22 hrs) (L. jensenii; 0.2% (w/v) sodium benzoate): 0.7

O=C(CO)[C@@H](O)[C@H](O)[C@H](O)CO [Fructose, fructose]
pH of the semi-solid agar (BV-associated bacteria [5]; Specimen 1): 4.6 | pH of the semi-solid agar (BV-associated bacteria [5]; Specimen 2): 4.1 | pH of the semi-solid agar (BV-associated bacteria [5]; Specimen 3): 3.8-4.1 | pH of the semi-solid agar (BV-associated bacteria [5]; Specimen 4): 4.1 | pH of the semi-solid agar (BV-associated bacteria [5]; Specimen 5): 3.8

Cc1ncc([N+](=O)[O-])n1CCO [metronidazole]
cure rate (BV; BV patients): about 60%

CCS(=O)(=O)CCn1c([N+](=O)[O-])cnc1C [tinidazole]
cure rate for BV (BV; FDA 1998 guideline, both the clinical and microbiological cure standards met): 37% | cure rate for BV (BV; cure if 3 of the 4 traditional Amsel clinical criteria are normal): 57%
